From PubChem BioAssay (NCI)
Values joined by “and” are separate entries in the source; they are usually repeats but may differ in a detail not shown here. Identical values can stand only once.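 Protocol summary: plate cells (96-well), add compound at 5 concentrations, incubate 48 h, interpolate endpoints linearly. At the GI50, growth is halved. At the TGI there is no net growth.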

Legend:
Experiment in all cases: NCI tumour cell line growth inhibition, 48 h
SK-MEL-5 melanoma = test system: SK-MEL-5 melanoma
COLO 205 colon = test system: COLO 205 colon
SR leukemia = test system: SR leukemia
DMS 114 small cell lung = test system: DMS 114 small cell lung
NCI-H460 lung = test system: NCI-H460 lung
A549 NSCLC = test system: A549 NSCLC
RPMI-8226 leukemia = test system: RPMI-8226 leukemia
HOP-18 NSCLC = test system: HOP-18 NSCLC
PC-3 prostate = test system: PC-3 prostate
BT-549 breast = test system: BT-549 breast

SMILES	TGI (SK-MEL-5 melanoma)	TGI (COLO 205 colon)	TGI (SR leukemia)	TGI (DMS 114 small cell lung)	TGI (NCI-H460 lung)	TGI (A549 NSCLC)	TGI (RPMI-8226 leukemia)	TGI (HOP-18 NSCLC)	GI50 (SK-MEL-5 melanoma)	GI50 (RPMI-8226 leukemia)	GI50 (COLO 205 colon)	GI50 (SR leukemia)	GI50 (DMS 114 small cell lung)	GI50 (NCI-H460 lung)	GI50 (A549 NSCLC)	GI50 (HOP-18 NSCLC)	TGI (PC-3 prostate)	TGI (BT-549 breast)	GI50 (PC-3 prostate)	GI50 (BT-549 breast)
CN(C(=O)C12C3C4C1C1C2C3C41C(N)=O)C(C)(C)C (stereo not given)	> 100 µM	> 100 µM	> 100 µM	> 100 µM	> 100 µM	> 100 µM	–	–	–	–	–	–	–	–	–	–	–	–	–	–
COc1ccc2c(c1)C(=O)c1ccc(OC)cc1C2=S	> 100 µM	> 100 µM	> 100 µM	> 100 µM	–	> 100 µM	> 100 µM	> 100 µM	–	–	–	–	–	–	–	–	–	–	–	–
O=C1CCCCC1S(=O)(=O)c1ccccc1 (stereo not given)	> 100 µM	> 100 µM	> 100 µM	> 100 µM	> 100 µM	> 100 µM	> 100 µM	> 100 µM	–	–	–	–	–	–	–	–	–	–	–	–
C[C@@]12CCC(=O)c3coc(c31)C(=O)c1cc3c(cc12)C(=O)C=CC3=O	> 1 µM and 28.3 µM	> 1 µM and 29.7 µM	> 71.2 µM	> 1 µM and 27.6 µM	> 70.9 µM	> 100 µM	> 100 µM	> 1 µM and 31.3 µM	> 1 µM	> 1 µM	> 1 µM	> 1 µM	> 1 µM	> 1 µM	> 1 µM	> 1 µM	–	–	–	–
O=S(=O)(/C=C/c1ccc(F)cc1)Cc1ccc(CS(=O)(=O)/C=C/c2ccc(F)cc2)cc1	> 100 µM	> 100 µM	> 100 µM	> 100 µM	> 100 µM	> 100 µM	> 100 µM	> 100 µM	–	–	–	–	–	–	–	–	–	–	–	–
CCOC(C[C@H](O[Si](C)(C)C(C)(C)C)[C@H]1COC(=S)S1)OCC	> 100 µM	> 100 µM	> 100 µM	> 100 µM	> 100 µM	> 100 µM	> 100 µM	–	–	–	–	–	–	–	–	–	–	–	–	–
Cc1cc(NC(=O)NC(=O)c2ccccc2NC(=O)C(C)N)ccc1Oc1ncc(Br)cn1 (stereo not given)	9.49 µM	0.852 µM	45.3 µM	6.17 µM	19.2 µM	35.8 µM	61.5 µM	–	–	–	–	–	–	–	–	–	15.2 µM	48.9 µM	–	–
O=c1cnn(C2OC(CO)C(O)C2O)c(=S)[nH]1 (stereo not given)	> 100 µM	> 100 µM	19.2 µM	> 100 µM	> 41.7 µM	> 100 µM	> 29.8 µM	> 100 µM	–	–	–	–	–	–	–	–	> 100 µM	> 100 µM	–	–
C=C1CC2OC(=O)C(=C)C2C(O)C2C(=C)CCC12 (stereo not given)	25.3 µM	12.9 µM	14 µM	16.9 µM	27.8 µM	32.2 µM	14.3 µM	29.3 µM	–	–	–	–	–	–	–	–	–	–	–	–
Cc1ccc2c(c1)-c1c3c(nn1-c1ccccc1)-c1ccccc1SC3O2 (stereo not given)	–	> 100 µM	–	> 100 µM	> 100 µM	> 100 µM	> 100 µM	> 100 µM	–	–	–	–	–	–	–	–	–	–	–	–
NC(=O)CN(CC(N)=O)C(N)=O	> 100 µM	> 100 µM	–	> 100 µM	> 100 µM	> 100 µM	> 100 µM	> 100 µM	–	–	–	–	–	–	–	–	–	–	–	–
O=C(c1ccc(Cl)cc1Cl)C1[C@H]2C(=O)N(c3ccc(Cc4ccc(N5C(=O)[C@@H]6ON(c7ccccc7)C(C(=O)c7ccc(Cl)cc7Cl)[C@@H]6C5=O)cc4)cc3)C(=O)[C@H]2ON1c1ccccc1 (stereo not given in full)	> 50 µM	> 50 µM	> 50 µM	> 50 µM	> 50 µM	> 50 µM	> 50 µM	> 50 µM	–	–	–	–	–	–	–	–	–	–	–	–
N/N=C(/C(=O)Nc1cccc(Cl)c1)C(C(=O)c1ccc(O)cc1O)C1OC(=O)c2ccccc21 (stereo not given)	> 100 µM	> 100 µM	> 100 µM	> 100 µM	> 100 µM	> 100 µM	> 100 µM	–	–	–	–	–	–	–	–	–	–	–	–	–
NNC(=O)C1CCC(=O)N1S(=O)(=O)c1ccccc1 (stereo not given)	> 100 µM	> 100 µM	> 100 µM	> 100 µM	> 100 µM	> 100 µM	> 100 µM	–	–	–	–	–	–	–	–	–	–	–	–	–
CCOc1cc2c(C(=O)CC)c(O)ccc2o1	> 63.3 µM	> 100 µM	> 100 µM	> 87.2 µM	> 100 µM	> 100 µM	> 100 µM	–	–	–	–	–	–	–	–	–	–	–	–	–
OC1(C23CC4CC(CC(C4)C2)C3)CSCC1(O)C12CC3CC(CC(C3)C1)C2 (stereo not given)	> 100 µM	> 100 µM	> 100 µM	> 100 µM	–	> 100 µM	> 100 µM	–	–	–	–	–	–	–	–	–	–	–	–	–
Cc1cn(C2CC3C(COCN3O)O2)c(=O)[nH]c1=O (stereo not given)	> 100 µM	> 100 µM	> 100 µM	> 100 µM	> 100 µM	> 100 µM	> 100 µM	–	–	–	–	–	–	–	–	–	–	–	–	–
CCOC(=O)CC[C@H](NC(=O)c1nc[nH]c1[N+](=O)[O-])C(=O)OCC	–	> 100 µM	> 100 µM	> 100 µM	> 100 µM	> 100 µM	> 100 µM	> 100 µM	–	–	–	–	–	–	–	–	–	–	–	–
C[C@H](OCc1ccccc1)C(=O)N1CCS(=O)(=O)N2CCC[C@@H]2C1=O	> 100 µM	> 100 µM	> 100 µM	> 100 µM	> 100 µM	> 100 µM	> 100 µM	> 100 µM	–	–	–	–	–	–	–	–	–	–	–	–
C=Cc1cncc(C#N)c1CCc1c(C#N)cncc1C=C	> 100 µM	> 10 µM	> 10 µM	> 10 µM	> 100 µM	> 100 µM	> 100 µM	> 10 µM	> 100 µM	> 100 µM	–	–	–	> 100 µM	> 100 µM	–	–	–	–	–
COc1ccc(/C=C/c2cc(OC)c(OC)c(OC)c2)cc1	> 85.4 µM	11 µM	–	> 100 µM	> 80.6 µM	> 100 µM	12.3 µM	> 100 µM	–	–	–	–	–	–	–	–	–	–	–	–
CC1=NN(C(=O)c2ccccc2O)C(=O)/C1=C/c1ccc(O)cc1	> 100 µM	> 94.6 µM	> 100 µM	16.1 µM	> 100 µM	> 100 µM	> 100 µM	–	–	–	–	–	–	–	–	–	> 100 µM	> 100 µM	–	–
Cc1nc(Nc2ccccc2)sc1C(=O)CC(=O)C(=O)Nc1c(C(C)C)cccc1C(C)C	> 100 µM	> 100 µM	> 100 µM	> 100 µM	> 100 µM	> 100 µM	–	> 100 µM	–	–	–	–	–	–	–	–	–	–	–	–
N#C/C(=C\c1ccsc1)c1nc2ccccc2o1	> 100 µM	> 100 µM	> 100 µM	–	> 100 µM	> 100 µM	> 100 µM	–	58.8 µM	61.7 µM	39 µM	> 100 µM	–	> 100 µM	> 100 µM	–	> 100 µM	> 100 µM	> 100 µM	48.4 µM
